Test results as given in patent US10174024B2, “5H-pyrido[3,2-B]indole compounds as anticancer agents” (BRISTOL-MYERS SQUIBB COMPANY, priority 2015, dated 2019).

Target: BRD4 (Homo sapiens, UniProt O60885)
Experiment: Time Resolved Fluorescence Resonance Energy Transfer (TR-FRET) binding assay, FRET BRD4
Conditions: one of the FRET assays described (BRD4 bromodomain construct not specified); read-out: FRET BRD4 IC50

Compound | IC50 [nM]
[2H]C([2H])([2H])c1nnn(C)c1-c1cnc2c3cc(N4CCN(S(C)(=O)=O)CC4)ccc3n([C@H](c3ccccc3F)C3CCOCC3)c2c1 [Example 42, 1-{5-[(S)-(2-Fluorophenyl)(oxan-4-yl)methyl]-3-[4-(^2Ha)methyl-1-methyl-1H-1,2,3-triazol-5-yl]-5H-pyrido[3,2-b]indol-8-yl}-4-methanesulfonylpiperazine] | < 5
[2H]C([2H])([2H])c1nnn(C)c1-c1cnc2c3ccc(N4CCS(=O)(=O)CC4)cc3n(C(c3ncccc3F)C3CCOCC3)c2c1 (stereo not shown) [Example 67, 4-{5-[(3-Fluoropyridin-2-yl)(oxan-4-yl)methyl]-3-[4-(^2H3)methyl-1-methyl-1H-1,2,3-triazol-5-yl]-5H-pyrido[3,2-b]indol-7-yl}-1λ^6,4-thiomorpholine-1,1-dione] | < 5
[2H]C([2H])([2H])c1nnn(C)c1-c1cnc2c3ccc(N4CCCS4(=O)=O)c(F)c3n([C@H](c3ncccc3F)C3CCOCC3)c2c1 [Example 61, 2-{6-Fluoro-5-[(S)-(3-fluoropyridin-2-yl)(oxan-4-yl)methyl]-3-[4-(^2H3)methyl-1-methyl-1H-1,2,3-triazol-5-yl]-5H-pyrido[3,2-b]indol-7-yl}-1λ^6,2-thiazolidine-1,1-dione] | < 5
Cc1nnn(C)c1-c1cnc2c3ccc(N4CCS(=O)(=O)CC4)cc3n([C@H](c3ccccc3)C3CCOCC3)c2c1 [Example 44, 4-[3-(Dimethyl-1H-1,2,3-triazol-5-yl)-5-[(S)-oxan-4-yl(phenyl)methyl]-5H-pyrido[3,2-b]-indol-7-yl]-1λ^6-thiomorpholine-1,1-dione] | < 1
Cc1nnn(C)c1-c1cnc2c3cc(C4CCNCC4)ccc3n([C@H](c3ccccc3)C3CCOCC3)c2c1 [Example 4, 4-[3-(Dimethyl-1H-1,2,3-triazol-5-yl)-5-[(S)-oxan-4-yl(phenyl)methyl]-5H-pyrido[3,2-b]indol-8-yl]piperidine] | < 1
[2H]C([2H])([2H])c1nnn(C)c1-c1ccc2c3ncc(-c4c(C([2H])([2H])[2H])nnn4C)cc3n(C(c3ncccc3F)C3CCOCC3)c2c1 (stereo not shown) [Example 27, 2-({3,7-Bis[4-(^2H3)methyl-1-methyl-1H-1,2,3-triazol-5-yl]-5H-pyrido[3,2-b]indol-5-yl}(oxan-4-yl)methyl)-3-fluoropyridine] | < 5
Cc1nnn(C)c1-c1cnc2c3ccc(-c4ccnn4C)cc3n([C@H](c3ccccc3)C3CCOCC3)c2c1 [Example 1, 1,4-Dimethyl-5-[7-(1-methyl-1H-pyrazol-5-yl)-5-[(S)-oxan-4-yl(phenyl)methyl]-5H-pyrido[3,2-b]indol-3-yl]-1H-1,2,3-triazole] | < 5
Cc1nnn(C)c1-c1cnc2c3ccc(C4(C)CNC(=O)O4)cc3n([C@H](c3ccccc3)C3CCOCC3)c2c1 (single isomer, unassigned) [Example 10] | < 5
[2H]C([2H])([2H])c1nnn(C)c1-c1cnc2c3c(N4CCC(F)(F)CC4)ccc(S(C)(=O)=O)c3n(C(c3ccccc3)C3CCC(F)(F)CC3)c2c1 (stereo not shown) [Example 73, 1-{5-[(4,4-Difluorocyclohexyl)(phenyl)methyl]-6-methanesulfonyl-3-[4-(^2H3)methyl-1-methyl-1H-1,2,3-triazol-5-yl]-5H-pyrido[3,2-b]indol-9-yl}-4,4-difluoropiperidine] | < 1500
[2H]C([2H])([2H])c1nnn(C)c1-c1cnc2c3ccc(N4CCCC4=O)c(F)c3n([C@H](c3ccccc3)C3CCOCC3)c2c1 [Example 57, 1-{6-Fluoro-3-[4-(^2H3)methyl-1-methyl-1H-1,2,3-triazol-5-yl]-5-[(S)-oxan-4-yl(phenyl)methyl]-5H-pyrido[3,2-b]indol-7-yl}pyrrolidin-2-one] | < 1
[2H]C([2H])([2H])c1nnn(C)c1-c1cnc2c3cc(N4CCc5ccccc5C4)ccc3n([C@H](c3ccc(F)cc3)C3CCOCC3)c2c1 [Example 43, 2-{5-[(S)-(4-Fluorophenyl)(oxan-4-yl)methyl]-3-[4-(^2H3)methyl-1-methyl-1H-1,2,3-triazol-5-yl]-5H-pyrido[3,2-b]indol-8-yl}-1,2,3,4-tetrahydroisoquinoline] | < 5
Cc1nnn(C)c1-c1cnc2c3ccc(N4CCC(C(F)(F)F)CC4)cc3n(C(c3ccccc3)C3CCC(F)(F)CC3)c2c1 (single isomer, unassigned) [Example 77, 1-{5-[(4,4-Difluorocyclohexyl)(phenyl)methyl]-3-(dimethyl-1H-1,2,3-triazol-5-yl)-5H-pyrido[3,2-b]indol-7-yl}-4-(trifluoromethyl)piperidine] | < 1
4-{5-[(3-Fluoropyridin-2-yl)(oxan-4-yl)methyl]-3-[4-(^2H3)methyl-1-methyl-1H-1,2,3-triazol-5-yl]-5H-pyrido[3,2-b]indol-7-yl}-1λ^6,4-thiomorpholine-1,1-dione [Example 68] | < 5
[2H]C([2H])([2H])c1nnn(C)c1-c1cnc2c3cc(N4CCS(=O)(=O)CC4)ccc3n([C@H](c3ccccc3F)C3CCOCC3)c2c1 [Example 41, 4-{5-[(S)-(2-Fluorophenyl)(oxan-4-yl)methyl]-3-[4-(^2H3)methyl-1-methyl-1H-1,2,3-triazol-5-yl]-5H-pyrido[3,2-b]indol-8-yl}-1λ^6-thiomorpholine-1,1-dione] | < 1500
[2H]C([2H])([2H])c1nnn(C)c1-c1cnc2c3cc(N4CCS(=O)(=O)[C@@H](C)C4)ccc3n([C@H](c3ccccc3F)C3CCOCC3)c2c1 [Example 52, (2S)-4-{5-[(S)-(2-Fluorophenyl)(oxan-4-yl)methyl]-3-[4-(^2H3)methyl-1-methyl-1H-1,2,3-triazol-5-yl]-5H-pyrido[3,2-b]indol-8-yl}-2-methyl-11λ^6,4-thiomorpholine-1,1-dione] | < 1
Cc1noc(C)c1-c1cnc2c3cc(C4CCN(C(=O)CO)CC4)ccc3n([C@H](c3ccccc3)C3CCOCC3)c2c1 [Example 6, 1-{4-[3-(Dimethyl-1,2-oxazol-4-yl)-5-[(S)-oxan-4-yl(phenyl)methyl]-5H-pyrido[3,2-b]indol-8-yl]piperidin-1-yl}-2-hydroxyethan-1-one] | < 5
Cc1nnn(C)c1-c1cnc2c3c(N4CCNCC4)ccc(S(C)(=O)=O)c3n([C@H](c3ccccc3)C3CCOCC3)c2c1 [Example 21, 1-[3-(Dimethyl-1H-1,2,3-triazol-5-yl)-6-methanesulfonyl-5-[(S)-oxan-4-yl(phenyl)methyl]-5H-pyrido[3,2-b]indol-9-yl]piperazine] | < 5
Cc1nnn(C)c1-c1cnc2c3cc(N4CCN(C5COC5)CC4)ccc3n([C@H](c3ccccc3)C3CCOCC3)c2c1 [Example 15, 1-[3-(Dimethyl-1H-1,2,3-triazol-5-yl)-5-[(S)-oxan-4-yl(phenyl)methyl]-5H-pyrido[3,2-b]indol-8-yl]-4-(oxetan-3-yl)piperazine] | < 5
[2H]C([2H])([2H])c1nnn(C)c1-c1cnc2c3ccc(N4CCC(F)(F)CC4)cc3n(C(c3ncccc3F)C3CCOCC3)c2c1 (stereo not shown) [Example 66, 2-{[7-(4,4-Difluoropiperidin-1-yl)-3-[4-(^2H3)methyl-1-methyl-1H-1,2,3-triazol-5-yl]-5H-pyrido[3,2-b]indol-5-yl](oxan-4-yl)methyl}-3-fluoropyridine] | < 5
Cc1nnn(C)c1-c1cnc2c3c(N4CCN(CC(N)=O)CC4)ccc(S(C)(=O)=O)c3n([C@H](c3ccccc3)C3CCOCC3)c2c1 [Example 22, 2-{4-[3-(Dimethyl-1H-1,2,3-triazol-5-yl)-6-methanesulfonyl-5-[(S)-oxan-4-yl(phenyl)methyl]-5H-pyrido[3,2-b]indol-9-yl]piperazin-1-yl}acetamide] | < 5
[2H]C([2H])([2H])c1nnn(C)c1-c1cnc2c3ccc(C4(O)CCOC4)c(F)c3n([C@H](c3ccccc3)C3CCOCC3)c2c1 (stereo partly drawn) [Example 64, 3-{6-Fluoro-3-[4-(^2H3)methyl-1-methyl-1H-1,2,3-triazol-5-yl]-5-[(S)-oxan-4-yl(phenyl)methyl]-5H-pyrido[3,2-b]indol-7-yl}oxolan-3-ol] | < 1
Cc1nnn(C)c1-c1cnc2c3ccc(N4CCC(F)(F)CC4)cc3n(C(c3ccccc3)C3CCC(F)(F)CC3)c2c1 (single isomer, unassigned) [Example 76, 1-{5-[(4,4-Difluorocyclohexyl)(phenyl)methyl]-3-(dimethyl-1H-1,2,3-triazol-5-yl)-5H-pyrido[3,2-b]indol-7-yl}-4,4-difluoropiperidine] | < 5
Cc1nnn(C)c1-c1cnc2c3c(N4CCN(C(=O)OC(C)(C)C)CC4)ccc(S(C)(=O)=O)c3n([C@H](c3ccccc3)C3CCOCC3)c2c1 [Example 25, tert-Butyl 4-[3-(dimethyl-1H-1,2,3-triazol-5-yl)-6-methanesulfonyl-5-[(S)-oxan-4-yl(phenyl)methyl]-5H-pyrido[3,2-b]indol-9-yl]piperazine-1-carboxylate] | < 5
[2H]C([2H])([2H])c1nnn(C)c1-c1cnc2c3c(N4CCCS4(=O)=O)ccc(S(C)(=O)=O)c3n(C(c3ncccc3F)C3CCOCC3)c2c1 (stereo not shown) [Example 35, 2-{5-[(3-Fluoropyridin-2-yl)(oxan-4-yl)methyl]-6-methanesulfonyl-3-[4-(^2H3)methyl-1-methyl-1H-1,2,3-triazol-5-yl]-5H-pyrido[3,2-b]indol-9-yl}-1λ^6,2-thiazolidine-1,1-dione] | < 1
[2H]C([2H])([2H])c1nnn(C)c1-c1cnc2c3ccc(C4(O)CCOCC4)c(F)c3n([C@H](c3ccccc3)C3CCOCC3)c2c1 [Example 62, 4-{6-Fluoro-3-[4-(^2H3)methyl-1-methyl-1H-1,2,3-triazol-5-yl]-5-[(S)-oxan-4-yl(phenyl)methyl]-5H-pyrido[3,2-b]indol-7-yl}oxan-4-ol] | < 1
